The results in this text go back to ChEMBL document CHEMBL1208691, “Synthesis of polyhalo acridones as pH-sensitive fluorescence probes” (Bioorg Med Chem Lett, 2010).

Molecules are shown by their SMILES. ≈ marks a conversion by molar mass, not a printed value.

What all share (assay type): functional, cell-based
One assay has as its system K562. Kind of assay: Cytotoxicity against human K562 cells by MTT assay.
The next assay deals with HL-60. Kind of assay: Cytotoxicity against human HL60 cells by MTT assay. (Tetrazolium dyes change colour on reduction, which living cells bring about.)
For another assay, the system named is A-431. The experiment in a line: Cytotoxicity against human A431 cells by MTT assay.
The next assay relates to HepG2. The experiment in a line: Cytotoxicity against human HepG2 cells by MTT assay.
The subject of the next assay is SK-OV-3. Kind of assay: Cytotoxicity against human SKOV3 cells by MTT assay.

A word on the IC50: it is the point on the concentration scale where inhibition reaches its midpoint. A higher IC50 goes with weaker potency in that assay. Take `NC(=O)c1c(Cl)c(Cl)c2[nH]c3ccccc3c(=O)c2c1Cl`: the IC50 was 7.7 µg/mL (≈ 22.5 µM) with K562; 5.7 µg/mL (≈ 16.7 µM) in the assay with HL-60; 1.2 µg/mL (≈ 3.51 µM) with A-431; 1.9 µg/mL (≈ 5.56 µM) with HepG2; 28 µg/mL (≈ 82 µM) in the assay on SK-OV-3.

Consider `NC(=O)c1c(F)c(Cl)c2[nH]c3ccccc3c(=O)c2c1F`, for which the IC50 with K562 was found to be 0.2 µg/mL (≈ 0.648 µM); in the assay on HL-60, 0.2 µg/mL (≈ 0.648 µM); with A-431, 0.08 µg/mL (≈ 0.259 µM); in the assay on HepG2, 0.2 µg/mL (≈ 0.648 µM); in the assay on SK-OV-3 it was 4 µg/mL (≈ 13 µM).

As for `NC(=O)c1c(F)c(F)c2[nH]c3ccccc3c(=O)c2c1F`, the IC50 stood at 4.5 µg/mL (≈ 15.4 µM) with K562; 2 µg/mL (≈ 6.84 µM) with HL-60; 0.05 µg/mL (≈ 0.171 µM) in the assay with A-431; 6.5 µg/mL (≈ 22.2 µM) with HepG2; 4.5 µg/mL (≈ 15.4 µM) in the assay on SK-OV-3.

On to `NC(=O)c1c(F)c(Cl)c2[nH]c3ccc(Cl)cc3c(=O)c2c1F`, for which the IC50 with K562 was determined as 3 µg/mL (≈ 8.74 µM); in the assay on HL-60, 16.6 µg/mL (≈ 48.4 µM); in the assay on A-431, 0.3 µg/mL (≈ 0.874 µM); in the assay on HepG2, 3.4 µg/mL (≈ 9.91 µM); with SK-OV-3 it was 5.3 µg/mL (≈ 15.4 µM).

For the molecule `NC(=O)c1c(F)c(F)c2[nH]c3ccc(Cl)cc3c(=O)c2c1F`, the IC50 with K562 stood at 2.7 µg/mL (≈ 8.27 µM); in the assay with HL-60, 1.3 µg/mL (≈ 3.98 µM); with A-431, 0.3 µg/mL (≈ 0.918 µM); in the assay with HepG2, 4.3 µg/mL (≈ 13.2 µM); in the assay on SK-OV-3, 3.9 µg/mL (≈ 11.9 µM).
